Measured values from US8586110B2, “Therapeutic composition produced using Camellia sinensis leaves and hydrogen peroxide” (LiveLeaf, Inc., priority 2007, dated 2013).

Test system: wild strain E-Coli
Assay: E-Coli culture turbidity over time (Experiment 4)
Format: cell-based
Conditions: 25 ppm hydrogen peroxide or equivalent concentration
Protocol: A wild strain E-Coli culture was added to three samples. The sample A contained 25 ppm hydrogen peroxide in water. The sample B contained a solution of Formulation A diluted to equivalent 25 ppm hydrogen peroxide fraction. The sample C contained a solution having a green tea extract of the same concentration of Formulation A but without hydrogen peroxide.

For `OO` [hydrogen peroxide], the “antimicrobial effect on bacteria population (visual turbidity)” value was “initially reduced but began to exhibit increased visual turbidity after 16 hours”.
